Measurements from US20240390295A1, “METHODS FOR TREATING DEPRESSION” (JANSSEN PHARMACEUTICA NV, priority 2020, published 2024).

System: adult patients (aged 18-64 years) with TRD
Assay: Maximum time to onset of clinician-reported adverse events by AE week 1/week 4 occurrence (Tables 5-16; modal dose 56, modal dose 84, Total)
Format: in vivo, human
Description: Patients were monitored for >90 minutes after ESK administration at each treatment session, after which time they could leave the clinical site at the clinician's discretion. AEs were monitored and reported, and safety assessments, including clinical laboratory tests and physical examinations, were conducted throughout the study. Clinician-reported AEs were categorized as mild, moderate, or severe based on clinical judgement (Table 1).
Since flexible dosing (ESK 56 or 84 mg) was permitted in the studies and an individual patient's doses could change within dosing timeframes, patients were stratified by modal dose during the respective periods.
The time to onset of the adverse events experienced by patients in Example 2 was analyzed. Tables 5-11 include the summary of specific adverse events by their respective categorized maximum time to Onset (i) across sessions 3-8 during Induction Phase by AE week 1 occurrence (Table 5), (ii) during Optimization Phase by AE week 1 occurrence (Table 6), (iii) during Optimization Phase by AE week 4 occurrence (Table 7), (iv) during Month 3-6 of Maintenance Phase by AE week 1 occurrence (Table 8), (v) Month 3-6 of Maintenance Phase by AE week 4 occurrence (Table 9), (vi) Month 6-12 of Maintenance Phase by AE week 1 occurrence (Table 10), and (vii) during Month 6-12 of Maintenance Phase by AE week 4 (Table 11).
Tables 12-16 include the incidences of clinician-reported blood pressure (Table 12), clinician-reported dissociation (Table 13), dizziness (Table 14), sedation (Table 15), and vertigo (Table 16) spanning week 1 to month 12 using the data of Example 2.

[1] = Based on Week 1, None, Month 3-6
[2] = Based on Week 1, None, Month 6-12
[3] = Based on Week 1, None, Weeks 2-4
[4] = Based on Week 1, Once, Month 3-6
[5] = Based on Week 1, Once, Month 6-12
[6] = Based on Week 1, Once, Weeks 2-4
[7] = Based on Week 1, Twice, Month 2
[8] = Based on Week 1, Twice, Month 3-6
[9] = Based on Week 1, Twice, Month 6-12
[10] = Based on Week 1, Twice, Weeks 2-4
[11] = Based on Week 1, incidence None, Month 2
[12] = Based on Week 1, incidence None, Month 3-6
[13] = Based on Week 1, incidence None, Month 6-12
[14] = Based on Week 1, incidence None, Weeks 2-4
[15] = Based on Week 1, incidence Once, Month 2
[16] = Based on Week 1, incidence Once, Month 3-6
[17] = Based on Week 1, incidence Once, Month 6-12
[18] = Based on Week 1, incidence Once, Weeks 2-4
[19] = Based on Week 1, incidence Twice, Month 2
[20] = Based on Week 1, incidence Twice, Month 3-6
[21] = Based on Week 1, incidence Twice, Month 6-12
[22] = Based on Week 1, incidence Twice, Weeks 2-4
[23] = Based on Week 4, None, Month 3-6

With `CN[C@]1(c2ccccc2Cl)CCCCC1=O` [esketamine, (S)-2-(2-chlorophenyl)-2-(methylamino)cyclohexanone] as the molecule, how does the “Blood Pressure (clinician): 0-30 m” value (Based on Week 1, None, Month 2) read?
The value was 1.

And the “Blood Pressure (clinician): 31-60 m” value (Based on Week 1, None, Month 2)?
The value was 12.

And the “Blood Pressure (clinician): 61-90 m” value (Based on Week 1, None, Month 2)?
The value was 2.

And the “Blood Pressure (clinician): % >60 m” value (Based on Week 1, None, Month 2)?
Its value is 11.8%.

And the “Blood Pressure (clinician): TOTAL” value (Based on Week 1, None, Month 2)?
The value was 17.

What about the “Blood Pressure (clinician): n >60 m” value (Based on Week 1, None, Month 2) of the same molecule?
Its value is 2.

And the “Blood Pressure (clinician): 31-60 m” value [1]?
Its value is 13.

And the “Blood Pressure (clinician): 61-90 m” value [1]?
Its value is 1.

And the “Blood Pressure (clinician): % >60 m” value [1]?
The value was 5.9%.

And the “Blood Pressure (clinician): TOTAL” value [1]?
Its value is 17.

And the “Blood Pressure (clinician): n >60 m” value [1]?
The value was 1.

What about the “Blood Pressure (clinician): 31-60 m” value [2] of the same molecule?
The value was 8.

And the “Blood Pressure (clinician): 61-90 m” value [2]?
The value was 1.

What about the “Blood Pressure (clinician): % >60 m” value [2] of the same molecule?
The value was 10%.

And the “Blood Pressure (clinician): TOTAL” value [2]?
The value was 10.

What about the “Blood Pressure (clinician): n >60 m” value [2] of the same molecule?
Its value is 1.

What about the “Blood Pressure (clinician): 31-60 m” value [3] of the same molecule?
Its value is 20.

What about the “Blood Pressure (clinician): 61-90 m” value [3] of the same molecule?
The value was 1.

What about the “Blood Pressure (clinician): % >60 m” value [3] of the same molecule?
Its value is 4.8%.

And the “Blood Pressure (clinician): TOTAL” value [3]?
The value was 21.

And the “Blood Pressure (clinician): n >60 m” value [3]?
Its value is 1.

And the “Blood Pressure (clinician): 31-60 m” value (Based on Week 1, Once, Month 2)?
Its value is 9.

What about the “Blood Pressure (clinician): % >60 m” value (Based on Week 1, Once, Month 2) of the same molecule?
The value was 0%.

What about the “Blood Pressure (clinician): TOTAL” value (Based on Week 1, Once, Month 2) of the same molecule?
The value was 9.

What about the “Blood Pressure (clinician): n >60 m” value (Based on Week 1, Once, Month 2) of the same molecule?
The value was 0.

And the “Blood Pressure (clinician): 31-60 m” value [4]?
The value was 4.

What about the “Blood Pressure (clinician): % >60 m” value [4] of the same molecule?
Its value is 0%.

And the “Blood Pressure (clinician): TOTAL” value [4]?
The value was 4.

And the “Blood Pressure (clinician): n >60 m” value [4]?
The value was 0.

What about the “Blood Pressure (clinician): 31-60 m” value [5] of the same molecule?
The value was 1.

And the “Blood Pressure (clinician): % >60 m” value [5]?
The value was 0%.

And the “Blood Pressure (clinician): TOTAL” value [5]?
The value was 1.

What about the “Blood Pressure (clinician): n >60 m” value [5] of the same molecule?
Its value is 0.

And the “Blood Pressure (clinician): 0-30 m” value [6]?
The value was 1.

And the “Blood Pressure (clinician): 31-60 m” value [6]?
Its value is 11.

And the “Blood Pressure (clinician): 61-90 m” value [6]?
Its value is 1.

What about the “Blood Pressure (clinician): % >60 m” value [6] of the same molecule?
The value was 7.7%.

And the “Blood Pressure (clinician): TOTAL” value [6]?
Its value is 13.

And the “Blood Pressure (clinician): n >60 m” value [6]?
The value was 1.

What about the “Blood Pressure (clinician): 31-60 m” value [7] of the same molecule?
The value was 10.

What about the “Blood Pressure (clinician): % >60 m” value [7] of the same molecule?
Its value is 0%.

What about the “Blood Pressure (clinician): TOTAL” value [7] of the same molecule?
The value was 10.

And the “Blood Pressure (clinician): n >60 m” value [7]?
The value was 0.

And the “Blood Pressure (clinician): 31-60 m” value [8]?
Its value is 3.

What about the “Blood Pressure (clinician): 61-90 m” value [8] of the same molecule?
Its value is 1.

And the “Blood Pressure (clinician): % >60 m” value [8]?
The value was 25%.

What about the “Blood Pressure (clinician): TOTAL” value [8] of the same molecule?
Its value is 4.

What about the “Blood Pressure (clinician): n >60 m” value [8] of the same molecule?
The value was 1.

What about the “Blood Pressure (clinician): 31-60 m” value [9] of the same molecule?
Its value is 2.

And the “Blood Pressure (clinician): % >60 m” value [9]?
Its value is 0%.

And the “Blood Pressure (clinician): TOTAL” value [9]?
The value was 2.

And the “Blood Pressure (clinician): n >60 m” value [9]?
Its value is 0.

And the “Blood Pressure (clinician): 31-60 m” value [10]?
Its value is 12.

What about the “Blood Pressure (clinician): 61-90 m” value [10] of the same molecule?
Its value is 1.

What about the “Blood Pressure (clinician): % >60 m” value [10] of the same molecule?
Its value is 14.2%.

And the “Blood Pressure (clinician): >90 m” value [10]?
Its value is 1.

And the “Blood Pressure (clinician): TOTAL” value [10]?
Its value is 14.

What about the “Blood Pressure (clinician): n >60 m” value [10] of the same molecule?
The value was 2.

What about the “Dissociation (clinician), % >60 m” value [11] of the same molecule?
Its value is 0%.

What about the “Dizziness, % >60 m” value [11] of the same molecule?
The value was 3.7%.

What about the “Sedation, % >60 m” value [11] of the same molecule?
The value was 0%.

What about the “Vertigo, % >60 m” value [11] of the same molecule?
The value was 4.2%.

What about the “Dissociation (clinician), % >60 m” value [12] of the same molecule?
Its value is 2.8%.

What about the “Dizziness, % >60 m” value [12] of the same molecule?
Its value is 2.9%.

What about the “Sedation, % >60 m” value [12] of the same molecule?
Its value is 11.8%.

What about the “Vertigo, % >60 m” value [12] of the same molecule?
Its value is 16.7%.

And the “Dissociation (clinician), % >60 m” value [13]?
Its value is 4.5%.

What about the “Dizziness, % >60 m” value [13] of the same molecule?
Its value is 0%.

What about the “Sedation, % >60 m” value [13] of the same molecule?
The value was 0%.

What about the “Vertigo, % >60 m” value [13] of the same molecule?
Its value is 11.1%.

And the “Dissociation (clinician), % >60 m” value [14]?
The value was 0%.

And the “Dizziness, % >60 m” value [14]?
The value was 4.3%.

What about the “Sedation, % >60 m” value [14] of the same molecule?
Its value is 15.8%.

What about the “Vertigo, % >60 m” value [14] of the same molecule?
Its value is 11.1%.

And the “Dissociation (clinician), % >60 m” value [15]?
Its value is 4%.

And the “Dizziness, % >60 m” value [15]?
The value was 6.1%.

What about the “Sedation, % >60 m” value [15] of the same molecule?
Its value is 0%.

And the “Vertigo, % >60 m” value [15]?
Its value is 15.8%.

And the “Dissociation (clinician), % >60 m” value [16]?
The value was 0%.

What about the “Dizziness, % >60 m” value [16] of the same molecule?
Its value is 0%.

What about the “Sedation, % >60 m” value [16] of the same molecule?
The value was 0%.

And the “Sedation, patients by time to onset” value [16]?
Its value is 0.

And the “Vertigo, % >60 m” value [16]?
The value was 16.7%.

And the “Dissociation (clinician), % >60 m” value [17]?
The value was 0%.

What about the “Dizziness, % >60 m” value [17] of the same molecule?
The value was 0%.

What about the “Sedation, % >60 m” value [17] of the same molecule?
Its value is 0%.

And the “Sedation, patients by time to onset” value [17]?
Its value is 0.

And the “Vertigo, % >60 m” value [17]?
Its value is 0%.

And the “Dissociation (clinician), % >60 m” value [18]?
Its value is 7.3%.

And the “Dizziness, % >60 m” value [18]?
The value was 5.4%.

And the “Sedation, % >60 m” value [18]?
The value was 57.1%.

And the “Vertigo, % >60 m” value [18]?
Its value is 10.3%.

And the “Dissociation (clinician), % >60 m” value [19]?
Its value is 0%.

What about the “Dizziness, % >60 m” value [19] of the same molecule?
The value was 5.5%.

And the “Sedation, % >60 m” value [19]?
Its value is 0%.

And the “Vertigo, % >60 m” value [19]?
The value was 0%.

What about the “Dissociation (clinician), % >60 m” value [20] of the same molecule?
Its value is 3%.

And the “Dizziness, % >60 m” value [20]?
Its value is 2.9%.

What about the “Sedation, % >60 m” value [20] of the same molecule?
The value was 0%.

What about the “Vertigo, % >60 m” value [20] of the same molecule?
The value was 4%.

And the “Dissociation (clinician), % >60 m” value [21]?
The value was 0%.

What about the “Dizziness, % >60 m” value [21] of the same molecule?
The value was 7.1%.

And the “Sedation, % >60 m” value [21]?
The value was 0%.

What about the “Vertigo, % >60 m” value [21] of the same molecule?
Its value is 0%.

What about the “Dissociation (clinician), % >60 m” value [22] of the same molecule?
The value was 6.3%.

What about the “Dizziness, % >60 m” value [22] of the same molecule?
Its value is 7.9%.

What about the “Sedation, % >60 m” value [22] of the same molecule?
The value was 16.7%.

And the “Vertigo, % >60 m” value [22]?
The value was 4.6%.

What about the “Blood Pressure (clinician): 0-30 m” value (Based on Week 4, None, Month 2) of the same molecule?
The value was 1.

And the “Blood Pressure (clinician): 31-60 m” value (Based on Week 4, None, Month 2)?
Its value is 13.

And the “Blood Pressure (clinician): 61-90 m” value (Based on Week 4, None, Month 2)?
The value was 2.

What about the “Blood Pressure (clinician): % >60 m” value (Based on Week 4, None, Month 2) of the same molecule?
Its value is 11.1%.

What about the “Blood Pressure (clinician): TOTAL” value (Based on Week 4, None, Month 2) of the same molecule?
The value was 18.

And the “Blood Pressure (clinician): n >60 m” value (Based on Week 4, None, Month 2)?
Its value is 2.

And the “Blood Pressure (clinician): 31-60 m” value [23]?
The value was 13.

What about the “Blood Pressure (clinician): 61-90 m” value [23] of the same molecule?
Its value is 1.

And the “Blood Pressure (clinician): % >60 m” value [23]?
The value was 5.9%.

And the “Blood Pressure (clinician): TOTAL” value [23]?
Its value is 17.
